Target: ROCK2 protein (Homo sapiens, UniProt O75116)
Assay: Degradation inducing activity of ROCK2 protein in HUVEC cells, Western blotting (Simple Western JESS)
Type: cell-based
Parameters: endogenous in cells; host or cells: HUVEC (ATCC CRL-1730)
Conditions: HUVEC, 24 h; for inhibition at 1 µM: degradation rate at 1 µM; for inhibition at 10 µM: degradation rate at 10 µM
Experimental: In vitro degradation inducing activity of ROCK2 protein of compounds of Examples was evaluated by Western Blotting (WB).
By a test compound, 10 mM DMSO solution was prepared, which was used as a 10 µM test compound solution. Further, the solution was diluted 10-fold with DMSO to prepare a 1 mM solution, which was used as a 1 µM test compound solution.
HUVEC cells (ATCC: CRL-1730, Lot: 70041472) were cultured in F-12K medium supplemented with 10% FBS, 0.1 mg/mL heparin, […] Endothelial Cell Growth Supplement (ECGS, Corning), and 1% Penicillin/Streptomycin. The HUVEC cells seeded in a 24 well plate at 50,000 cells/well/1 mL were cultured for 24 hours, and then 1 µL of DMSO or a test compound solution was added thereto and treatment was performed for 24 hours. Cells were harvested and lysed for 20 minutes on ice using lysis buffer (Cell Signaling Technology, Cat#9803) supplemented with protease inhibitor cocktail (Sigma, Cat#P8340; Roche, Cat#P11873580001), and phosphatase inhibitor cocktail (Sigma, Cat#P5726, P0044). The lysate was sonicated (15 seconds, amplitude 30%, 1 cycle) and then centrifuged at 12500 rpm for 15 minutes at 4°C. The protein concentration was determined by BCA assay kit (Thermo Fisher Scientific, Cat#23225).
The western blotting was performed using Simple Western JESS (protein simple). A cell lysis sample (protein amount; about 1.06 µg) was loaded on a plate of Simple Western JESS, and the expression level of ROCK2 protein was detected using a 12-230 kDa Wes Separation Module (Protein simple, Cat#SM-WO04), an Anti-Rabbit Detection Module for Wes (Protein simple, Cat#DM-001), and a Total Protein Detection Module for Wes (Protein simple, Cat#DM-TP01). As the primary antibody, a material obtained by diluting ROCK2 (D1B1) Rabbit mAb (Cell Signaling Technology, Cat#9029) at 1:10 was used, and as the secondary antibody, a material obtained by diluting HRP-labeled anti-rabbit IgG antibody (Cell Signaling Technology, Cat#7074S) at 1:100 was used. The expression level of the target protein was standardized using the total protein amount loaded as a reference. The standardized expression level data of the control (DMSO) was taken as 100%, and the degradation rate (%) was calculated from the average standardized expression level data of the test compound. All analysis steps, such as data detection and analysis, are fully automated.
With respect to the ROCK2 protein degradation rate of the test compound, the protein degradation rates (%) at the evaluation concentrations were set to A ≥ 75%, 75% > B ≥ 50%, 50% > C ≥ 25%, and D < 25%, and are shown in Table 7.

ROCK2 protein, sequence (O75116 whole entry): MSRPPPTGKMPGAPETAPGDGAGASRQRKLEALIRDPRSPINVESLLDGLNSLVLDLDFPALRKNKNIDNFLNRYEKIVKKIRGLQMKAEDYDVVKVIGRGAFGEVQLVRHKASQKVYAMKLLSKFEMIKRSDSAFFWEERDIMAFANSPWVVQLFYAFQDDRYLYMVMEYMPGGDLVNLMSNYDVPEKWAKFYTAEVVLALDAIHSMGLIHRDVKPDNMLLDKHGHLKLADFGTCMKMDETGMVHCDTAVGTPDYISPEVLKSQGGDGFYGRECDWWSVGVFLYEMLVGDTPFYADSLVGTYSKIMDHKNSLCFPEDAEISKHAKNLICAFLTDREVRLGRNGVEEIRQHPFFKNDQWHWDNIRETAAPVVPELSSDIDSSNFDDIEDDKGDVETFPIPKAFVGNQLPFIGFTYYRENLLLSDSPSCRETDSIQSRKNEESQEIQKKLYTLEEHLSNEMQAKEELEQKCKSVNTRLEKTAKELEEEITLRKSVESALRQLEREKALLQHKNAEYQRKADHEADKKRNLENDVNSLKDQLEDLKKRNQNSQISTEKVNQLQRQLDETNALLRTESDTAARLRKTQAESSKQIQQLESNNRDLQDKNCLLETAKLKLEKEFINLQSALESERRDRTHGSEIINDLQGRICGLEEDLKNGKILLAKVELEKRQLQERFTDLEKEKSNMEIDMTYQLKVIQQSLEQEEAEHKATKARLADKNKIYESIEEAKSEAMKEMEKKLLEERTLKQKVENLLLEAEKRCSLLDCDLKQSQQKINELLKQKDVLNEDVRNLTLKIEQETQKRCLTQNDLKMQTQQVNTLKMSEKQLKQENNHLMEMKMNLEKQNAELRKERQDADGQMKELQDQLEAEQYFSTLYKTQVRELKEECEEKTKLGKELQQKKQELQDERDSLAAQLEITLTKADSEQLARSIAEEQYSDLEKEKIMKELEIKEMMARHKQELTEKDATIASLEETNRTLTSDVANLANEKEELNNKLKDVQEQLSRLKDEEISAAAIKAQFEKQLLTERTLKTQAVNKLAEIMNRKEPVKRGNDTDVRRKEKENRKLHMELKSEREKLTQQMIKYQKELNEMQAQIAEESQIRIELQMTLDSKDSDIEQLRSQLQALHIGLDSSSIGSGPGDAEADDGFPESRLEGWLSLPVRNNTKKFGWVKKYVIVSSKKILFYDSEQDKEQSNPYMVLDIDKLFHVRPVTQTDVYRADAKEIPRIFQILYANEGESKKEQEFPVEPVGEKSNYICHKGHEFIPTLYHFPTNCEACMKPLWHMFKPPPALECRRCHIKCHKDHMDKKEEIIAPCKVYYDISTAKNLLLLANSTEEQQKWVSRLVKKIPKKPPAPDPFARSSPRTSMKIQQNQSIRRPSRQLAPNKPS

SMILES	inhibition at 1 µM [%]	inhibition at 10 µM [%]
COC[C@H]1CN[C@H](C)CN1CC(=O)N1CC(C)(C)c2ncc(Cc3cccc(OCCOCCOCCN[C@H](C)c4ccc(C(=O)Nc5ccncc5)cc4)c3)cc21 [Example 44, 4-((R)-1-((2-(2-(2-(3-((1-(2-((2R,5R)-2-(Methoxymethyl)-5-methylpiperazin-1-yl)acetyl)-3,3-dimethyl-2,3-dihydro-1H-pyrrolo[3,2-b]pyridin-6-yl)methyl)phenoxy)ethoxy)ethoxy)ethyl)amino)ethyl)-N-(pyridin-4-yl)benzamide]	50 to 75	≥ 75
COC[C@H]1CN[C@H](C)CN1CC(=O)N1CC(C)(C)c2ncc(Cc3ccccc3OCCOCCOCCN[C@H](Cc3cccc(F)c3)C(=O)Nc3ccc(-c4ccncc4)cc3)cc21 [Example 72, (R)-3-(3-Fluorophenyl)-2-((2-(2-(2-(2-((1-(2-((2R,5R)-2-(methoxymethyl)-5-methylpiperazin-1-yl)acetyl)-3,3-dimethyl-2,3-dihydro-1H-pyrrolo[3,2-b]pyridin-6-yl)methyl)phenoxy)ethoxy)ethoxy)ethyl)amino)-N-(4-(pyridin-4-yl)phenyl)propanamide]	< 25	≥ 75
COC[C@H]1CN[C@H](C)CN1CC(=O)N1CC(C)(C)c2ncc(Cc3ccccc3OCCOCCOCCOCCOCCOCCOCCOCCN[C@H](C)c3ccc(C(=O)Nc4ccncc4)cc3)cc21 [Example 70, 4-((R)-26-(2-((1-(2-((2R,5R)-2-(Methoxymethyl)-5-methylpiperazin-1-yl)acetyl)-3,3-dimethyl-2,3-dihydro-1H-pyrrolo[3,2-b]pyridin-6-yl)methyl)phenoxy)-6,9,12,15,18,21,24-heptaoxa-3-azahexacosan-2-yl)-N-(pyridin-4-yl)benzamide]	≥ 75	≥ 75
COC[C@H]1CN[C@H](C)CN1CC(=O)N1CC(C)(C)c2ncc(Cc3ccccc3OCCOCCN[C@H](Cc3cccc(F)c3)C(=O)Nc3ccc(-c4ccncc4)cc3)cc21 [Example 71, (R)-3-(3-Fluorophenyl)-2-((2-(2-(2-((1-(2-((2R,5R)-2-(methoxymethyl)-5-methylpiperazin-1-yl)acetyl)-3,3-dimethyl-2,3-dihydro-1H-pyrrolo[3,2-b]pyridin-6-yl)methyl)phenoxy)ethoxy)ethyl)amino)-N-(4-(pyridin-4-yl)phenyl)propanamide]	25 to 50	< 25
C[C@@H]1CN(CC(=O)N2CC(C)(C)c3ncc(Cc4ccc(F)cc4)cc32)[C@@H](CN(C)CCOCCOCCOCCOCCOCCN[C@H](C)c2ccc(C(=O)Nc3ccncc3)cc2)CN1 [Example 5, 4-((R)-1-((2R,5R)-1-(2-(6-(4-Fluorobenzyl)-3,3-dimethyl-2,3-dihydro-1H-pyrrolo[3,2-b]pyridin-1-yl)-2-oxoethyl)-5-methylpiperazin-2-yl)-2-methyl-5,8,11,14,17-pentaoxa-2,20-diazadocosan-21-yl)-N-(pyridin-4-yl)benzamide]	25 to 50	< 25
COC[C@H]1CN[C@H](C)CN1CC(=O)N1CC(C)(C)c2ncc(Cc3cccc(OCCOCCNC[C@@H](C(=O)Nc4ccc5cnccc5c4)c4ccccc4)c3)cc21 [Example 57, (S)-N-(Isoquinolin-6-yl)-3-((2-(2-(3-((1-(2-((2R,5R)-2-(methoxymethyl)-5-methylpiperazin-1-yl)acetyl)-3,3-dimethyl-2,3-dihydro-1H-pyrrolo[3,2-b]pyridin-6-yl)methyl)phenoxy)ethoxy)ethyl)amino)-2-phenylpropanamide]	25 to 50	≥ 75
COC[C@H]1CN[C@H](C)CN1CC(=O)N1CC(C)(C)c2ncc(Cc3ccccc3OCCOCCNC[C@@H](C(=O)Nc3ccc4cnccc4c3)c3ccccc3)cc21 [Example 78, (S)-N-(Isoquinolin-6-yl)-3-((2-(2-(2-((1-(2-((2R,5R)-2-(methoxymethyl)-5-methylpiperazin-1-yl)acetyl)-3,3-dimethyl-2,3-dihydro-1H-pyrrolo[3,2-b]pyridin-6-yl)methyl)phenoxy)ethoxy)ethyl)amino)-2-phenylpropanamide]	< 25	≥ 75
C[C@@H]1CN(CC(=O)N2CC(C)(C)c3ncc(Cc4ccc(F)cc4)cc32)[C@@H](CN(C)CCOCCOCCOCCOCCNC[C@@H](C(=O)Nc2ccc3cnccc3c2)c2ccccc2)CN1 [Example 18, (S)-1-((2R,5R)-1-(2-(6-(4-Fluorobenzyl)-3,3-dimethyl-2,3-dihydro-1H-pyrrolo[3,2-b]pyridin-1-yl)-2-oxoethyl)-5-methylpiperazin-2-yl)-N-(isoquinolin-6-yl)-2-methyl-19-phenyl-5,8,11,14-tetraoxa-2,17-diazaicosan-20-amide]	≥ 75	≥ 75
C[C@@H]1CN(CC(=O)N2CC(C)(C)c3ncc(Cc4ccc(F)cc4)cc32)[C@@H](CN(C)CCOCCOCCOCCOCCOCCOCCOCCN[C@H](C)c2ccc(C(=O)Nc3ccncc3)cc2)CN1 [Example 7, 4-((R)-1-((2R,5R)-1-(2-(6-(4-Fluorobenzyl)-3,3-dimethyl-2,3-dihydro-1H-pyrrolo[3,2-b]pyridin-1-yl)-2-oxoethyl)-5-methylpiperazin-2-yl)-2-methyl-5,8,11,14,17,20,23-heptaoxa-2,26-diazaoctacosan-27-yl)-N-(pyridin-4-yl)benzamide]	50 to 75	50 to 75
COC[C@H]1CN[C@H](C)CN1CC(=O)N1CC(C)(C)c2nc(CN(C)CCOCCOCCOCCOCCOCCN[C@H](C)c3ccc(C(=O)Nc4ccncc4)cc3)c(Cc3ccc(F)cc3)cc21 [Example 26, 4-((R)-1-(6-(4-Fluorobenzyl)-1-(2-((2R,5R)-2-(methoxymethyl)-5-methylpiperazin-1-yl)acetyl)-3,3-dimethyl-2,3-dihydro-1H-pyrrolo[3,2-b]pyridin-5-yl)-2-methyl-5,8,11,14,17-pentaoxa-2,20-diazadocosan-21-yl)-N-(pyridin-4-yl)benzamide]	50 to 75	≥ 75
COC[C@H]1CN[C@H](C)CN1CC(=O)N1CC(C)(C)c2nc(CN(C)CCOCCOCCNC[C@@H](C(=O)Nc3ccc4cnccc4c3)c3ccccc3)c(Cc3ccc(F)cc3)cc21 [Example 37, (S)-1-(6-(4-Fluorobenzyl)-1-(2-((2R,5R)-2-(methoxymethyl)-5-methylpiperazin-1-yl)acetyl)-3,3-dimethyl-2,3-dihydro-1H-pyrrolo[3,2-b]pyridin-5-yl)-N-(isoquinolin-6-yl)-2-methyl-13-phenyl-5,8-dioxa-2,11-diazatetradecan-14-amide]	< 25	≥ 75
COC[C@H]1CN[C@H](C)CN1CC(=O)N1CC(C)(C)c2ncc(Cc3ccccc3OCCOCCOCCOCCOCCOCCOCCN[C@H](C)c3ccc(C(=O)Nc4ccncc4)cc3)cc21 [Example 69, 4-((R)-23-(2-((1-(2-((2R,5R)-2-(Methoxymethyl)-5-methylpiperazin-1-yl)acetyl)-3,3-dimethyl-2,3-dihydro-1H-pyrrolo[3,2-b]pyridin-6-yl)methyl)phenoxy)-6,9,12,15,18,21-hexaoxa-3-azatricosan-2-yl)-N-(pyridin-4-yl)benzamide]	≥ 75	≥ 75
C[C@@H]1CN(CC(=O)N2CC(C)(C)c3ncc(Cc4ccc(F)cc4)cc32)[C@@H](CN(C)CCOCCOCCOCCOCCOCCOCCN[C@H](Cc2cccc(F)c2)C(=O)Nc2ccc(-c3ccncc3)cc2)CN1 [Example 13, (R)-24-(3-Fluorobenzyl)-1-((2R,5R)-1-(2-(6-(4-fluorobenzyl)-3,3-dimethyl-2,3-dihydro-1H-pyrrolo[3,2-b]pyridin-1-yl)-2-oxoethyl)-5-methylpiperazin-2-yl)-2-methyl-N-(4-(pyridin-4-yl)phenyl)-5,8,11,14,17,20-hexaoxa-2,23-diazapentacosan-25-amide]	< 25	< 25
COC[C@H]1CN[C@H](C)CN1CC(=O)N1CC(C)(C)c2ncc(Cc3cccc(OCCOCCOCCOCCOCCOCCOCCN[C@H](Cc4cccc(F)c4)C(=O)Nc4ccc(-c5ccncc5)cc4)c3)cc21 [Example 55, (R)-2-(3-Fluorobenzyl)-23-(3-((1-(2-((2R,5R)-2-(methoxymethyl)-5-methylpiperazin-1-yl)acetyl)-3,3-dimethyl-2,3-dihydro-1H-pyrrolo[3,2-b]pyridin-6-yl)methyl)phenoxy)-N-(4-(pyridin-4-yl)phenyl)-6,9,12,15,18,21-hexaoxa-3-azatricosanamide]	< 25	50 to 75

Source: EP4578856A1, “HETEROCYCLIC COMPOUND” (Ubience Inc., priority 2022, dated 2024)
